Calls of active or inactive are those of the source. No rule for the calls is given here.
What was measured:
[1] = test system: PC-3; experiment: Antiproliferative activity against human PC3 cells assessed as inhibition of cell viability at 0.5 to 5 uM after 72 hrs by CCK8 assay; format: functional, cell-based
[2] = test system: PC-3; experiment: Antiproliferative activity against human PC3 cells assessed as reduction in cell viability after 72 hrs by CCK8 assay; format: functional, cell-based; details: PC-3, 72 h
[3] = test system: PANC-1; experiment: Antiproliferative activity against human PANC1 cells assessed as reduction in cell viability after 72 hrs; format: functional, cell-based; details: PANC-1, 72 h
[4] = test system: PC-3; experiment: Antiproliferative activity against human PC3 cells at 0.5 uM assessed as inhibition of cell viability after 72 hrs by CCK-8 assay relative to control; format: functional; details: PC-3, 72 h

CCOC(=O)c1c(-c2cccc(OC)c2)n2c3ccccc3c(=O)n2c2ccccc12
Activity [1]: Active

CCOC(=O)c1c(-c2ccccc2)n2c3ccccc3c(=O)n2c2ccc(Cl)cc12
IC50 [2]: > 50000 nM | Activity [1]: Active | IC50 [3]: > 50000 nM

COC(=O)c1c(C)n2c3ccccc3c(=O)n2c2ccccc12
IC50 [2]: 1010 nM | Activity [1]: Active | IC50 [3]: 551 nM

CCOC(=O)c1c(-c2ccc(OC)cc2)n2c3ccccc3c(=O)n2c2ccccc12
Activity [1]: Active

O=C(OCCO)c1c(-c2ccccc2)n2c3ccccc3c(=O)n2c2ccccc12
Activity [1]: inactive

O=C1CCc2c1c1cccc(F)c1n1c(=O)c3ccccc3n21
Activity [1]: Active

CCOC(=O)c1c(-c2ccccc2)n2c3ccccc3c(=O)n2c2ccc(F)cc12
Activity [1]: Active

CCOC(=O)c1c(-c2ccccc2)n2c3ccccc3c(=O)n2c2ccc3c(c12)OCO3
IC50 [2]: 5820 nM | Activity [1]: Active | inhibition at 0.5 µM [4]: 39.5% | IC50 [3]: > 50000 nM

CCOC(=O)c1c(-c2ccccc2)n2c3ccccc3c(=O)n2c2ccccc12
Activity [1]: Active

CCOC(=O)c1c(-c2ccccc2)n2c3ccccc3c(=O)n2c2ccc(N3CCOCC3)cc12
IC50 [2]: 7490 nM | Activity [1]: Active | IC50 [3]: 13800 nM

COc1cc2c(c(OC)c1OC)c1c(n3c4ccccc4c(=O)n23)CCC1=O
Activity [1]: Active

O=C1CCCc2c1c1ccccc1n1c(=O)c3ccccc3n21
Activity [1]: Active

CCOC(=O)c1c(-c2ccccc2)n2c3ccc(OC)cc3c(=O)n2c2ccccc12
Activity [1]: Active

CCOC(=O)c1c(C)n2c3ccccc3c(=O)n2c2ccc(OC)cc12
Activity [1]: Active

CCOC(=O)c1c(-c2ccccc2)n2c3ccccc3c(=O)n2c2cc(OC)cc(OC)c12
Activity [1]: Active

O=C1CCc2c1c1c3c(ccc1n1c(=O)c4ccccc4n21)OCO3
Activity [1]: Active

CCOC(=O)c1c(C)n2c3ccccc3c(=O)n2c2c(OC)cccc12
IC50 [2]: 216 nM | Activity [1]: Active | IC50 [3]: 116 nM

COc1cc(OC)c2c3c(n4c5ccccc5c(=O)n4c2c1)CCC3=O
Activity [1]: Active

CCOC(=O)c1c(C)n2c3ccccc3c(=O)n2c2ccc(I)cc12
Activity [1]: Active

CCOC(=O)c1c(-c2ccccc2)n2c3ccccc3c(=O)n2c2ccc(Br)cc12
Activity [1]: Active

CCOC(=O)c1c(C)n2c3ccccc3c(=O)n2c2cc(OC)cc(OC)c12
Activity [1]: Active

CCOC(=O)c1c(C)n2c3ccc(OC)cc3c(=O)n2c2ccccc12
IC50 [2]: 475 nM | Activity [1]: Active | IC50 [3]: 506 nM

CCOC(=O)c1c(-c2ccccc2)n2c3ccccc3c(=O)n2c2ccc(C#N)cc12
Activity [1]: Active

CCOC(=O)c1c(-c2ccccc2)n2c3ccccc3c(=O)n2c2ccc(OC)cc12
IC50 [2]: 2020 nM | Activity [1]: Active | IC50 [3]: 4230 nM

O=C1CCc2c1c1ccccc1n1c(=O)c3ccccc3n21
Activity [1]: Active

CCOC(=O)c1c(-c2ccc(I)cc2)n2c3ccccc3c(=O)n2c2ccccc12
IC50 [2]: 3980 nM | Activity [1]: Active | IC50 [3]: 6820 nM

CCOC(=O)c1c(C)n2c3ccccc3c(=O)n2c2ccc(F)cc12
Activity [1]: Active

COC(=O)c1c(C2CC2)n2c3ccccc3c(=O)n2c2ccccc12
Activity [1]: inactive

CC(C)[C@]12O[C@H]1[C@@H]1O[C@@]13[C@@]1(C)CCC4=C(COC4=O)[C@@H]1C[C@@H]1O[C@@]13C2=O [TRIPTONIDE]
IC50 [2]: 25 nM | IC50 [3]: 47 nM

O=C1CCc2c1c1cc(Br)ccc1n1c(=O)c3ccccc3n21
Activity [1]: Active

CCOC(=O)c1c(C)n2c3ccccc3c(=O)n2c2ccc(Cl)cc12
Activity [1]: Active

COC(=O)c1c(C)n2c3ccccc3c(=O)n2c2ccc(OC(F)(F)F)cc12
Activity [1]: Active

COC(=O)c1c(C)n2c3ccccc3c(=O)n2c2cc3ccccc3cc12
Activity [1]: Active

COc1cccc2c3c(n4c5ccccc5c(=O)n4c12)CCC3=O
Activity [1]: Active

CCc1c(C(=O)OC)c2ccccc2n2c(=O)c3ccccc3n12
Activity [1]: inactive

O=C1NCCc2c1c1ccccc1n1c(=O)c3ccccc3n21
Activity [1]: Active

COP(=O)(OC)c1c(C)n2c3ccccc3c(=O)n2c2ccccc12
Activity [1]: inactive

Cc1c(C(=O)OCCO)c2ccccc2n2c(=O)c3ccccc3n12
Activity [1]: inactive

CCOC(=O)c1c(-c2ccccc2)n2c3ccccc3c(=O)n2c2ccc(I)cc12
Activity [1]: Active

COC(=O)c1c(C)n2c3ccccc3c(=O)n2c2cc(OC)c(OC)c(OC)c12
Activity [1]: Active

CCOC(=O)c1c(-c2ccc(C)cc2)n2c3ccccc3c(=O)n2c2ccccc12
Activity [1]: Active

CCOC(=O)c1c(C)n2c3ccccc3c(=O)n2c2ccc(Br)cc12
Activity [1]: Active

CCOC(=O)c1c(-c2ccccc2)n2c3ccc(F)cc3c(=O)n2c2ccccc12
Activity [1]: Active

COc1ccc2c(c1)c1c(n3c4ccccc4c(=O)n23)CCCC1=O
Activity [1]: Active

COC(=O)c1c(C)n2c3ccccc3c(=O)n2c2c(F)cccc12
IC50 [2]: 334 nM | Activity [1]: Active | IC50 [3]: 528 nM

CCc1ccc2c(c1)c(C(=O)OC)c(C)n1c3ccccc3c(=O)n21
Activity [1]: Active

CCOC(=O)c1c(-c2ccco2)n2c3ccccc3c(=O)n2c2ccccc12
Activity [1]: Active

O=C1CCc2c1c1cc(I)ccc1n1c(=O)c3ccccc3n21
Activity [1]: Active

CCOC(=O)c1c(-c2ccc(F)cc2)n2c3ccccc3c(=O)n2c2ccccc12
Activity [1]: Active

CCOC(=O)c1c(C)n2c3ccccc3c(=O)n2c2ccc(C)cc12
Activity [1]: Active

CCOC(=O)c1c(-c2ccccc2)n2c3ccccc3c(=O)n2c2ccc(-c3ccccc3)cc12
Activity [1]: Active

COc1ccc2c(c1)c1c(n3c4ccccc4c(=O)n23)CCC1=O
Activity [1]: Active

O=C1CCCc2c1c1cc(F)ccc1n1c(=O)c3ccccc3n21
Activity [1]: Active

CCOC(=O)c1c(C)n2c3ccccc3c(=O)n2c2ccccc12
Activity [1]: Active

CCOC(=O)c1c(-c2ccccc2)n2c3ccccc3c(=O)n2c2ccc(C)cc12
Activity [1]: Active

O=C1CCc2c1c1cc(Cl)ccc1n1c(=O)c3ccccc3n21
Activity [1]: Active

— ChEMBL document CHEMBL4616601, “Meeting organometallic chemistry with drug discovery: CH activation enabled discovery of a new ring system of 12H-Indazolo[2,1-a]cinnolin-12-ones with anti-proliferation activity” (Bioorg Med Chem Lett, 2020)
